From patent EP1148783B1, “CONVERTING COX INHIBITION COMPOUNDS THAT ARE NOT COX-2 SELECTIVE INHIBITORS TO DERIVATIVES THAT ARE COX-2 SELECTIVE INHIBITORS” (priority 1999, dated 2000)
Substitutions are numbered along the chain they refer to. Where two headings read alike, the source gives them in different places.

Key:
COX-2 [1] = target: T1, COX-2 (Homo sapiens, UniProt P35354); assay: TLC assay of cyclooxygenase inhibition, purified human COX-2; type: biochemical
T1 sequence (P35354 18-604): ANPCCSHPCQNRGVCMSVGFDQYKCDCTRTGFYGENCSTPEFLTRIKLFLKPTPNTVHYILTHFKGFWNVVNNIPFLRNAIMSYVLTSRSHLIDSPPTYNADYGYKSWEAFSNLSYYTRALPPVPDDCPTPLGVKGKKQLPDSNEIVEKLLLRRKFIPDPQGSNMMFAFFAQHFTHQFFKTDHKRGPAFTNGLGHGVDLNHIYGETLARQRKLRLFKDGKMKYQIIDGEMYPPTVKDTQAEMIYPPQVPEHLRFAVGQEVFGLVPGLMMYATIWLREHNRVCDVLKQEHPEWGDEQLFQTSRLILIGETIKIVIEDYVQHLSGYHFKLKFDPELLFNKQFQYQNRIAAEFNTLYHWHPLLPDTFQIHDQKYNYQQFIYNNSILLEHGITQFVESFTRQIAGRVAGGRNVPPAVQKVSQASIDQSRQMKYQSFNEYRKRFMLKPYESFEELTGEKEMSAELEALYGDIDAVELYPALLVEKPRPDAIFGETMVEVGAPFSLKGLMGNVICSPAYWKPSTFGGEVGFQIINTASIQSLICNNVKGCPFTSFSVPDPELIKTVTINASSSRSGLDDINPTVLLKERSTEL

rat foot pad edema = assay: Rat foot pad edema model (carrageenan); type: in vivo, male Sprague-Dawley rats; settings: 2 mg/kg orally, corrected for 0.1 mL injection volume
Experimental: Rats were injected with carrageenan, which triggers a rapid edema (swelling) within 3 hours that can be quantitatively measured by volume displacement.
In these experiments, the carrageenan that was injected was in 0.1 mL of aqueous saline so that 0.1 mL volume increase was due to the injection alone. […] More specifically, male Sprague-Dawley rats (150 g) received a subplantar injection of carrageenan (0.1 mL of a 1% suspension of carrageenan in sterile aqueous saline) into the right hind footpad while mildly anesthetized with methoxyflurane. […] The ipsilateral footpad volume (mL) was measured with a water displacement plethysmometer at time = 3 hours post-injection and compared to the time = 0 pre-injection paw volume for edema calculations.

[2] = target: T2, murine COX-2 mutant Tyr341Ala (Mus musculus, UniProt Q05769, Y341A)
T2 sequence (Q05769 18-604 Y341A): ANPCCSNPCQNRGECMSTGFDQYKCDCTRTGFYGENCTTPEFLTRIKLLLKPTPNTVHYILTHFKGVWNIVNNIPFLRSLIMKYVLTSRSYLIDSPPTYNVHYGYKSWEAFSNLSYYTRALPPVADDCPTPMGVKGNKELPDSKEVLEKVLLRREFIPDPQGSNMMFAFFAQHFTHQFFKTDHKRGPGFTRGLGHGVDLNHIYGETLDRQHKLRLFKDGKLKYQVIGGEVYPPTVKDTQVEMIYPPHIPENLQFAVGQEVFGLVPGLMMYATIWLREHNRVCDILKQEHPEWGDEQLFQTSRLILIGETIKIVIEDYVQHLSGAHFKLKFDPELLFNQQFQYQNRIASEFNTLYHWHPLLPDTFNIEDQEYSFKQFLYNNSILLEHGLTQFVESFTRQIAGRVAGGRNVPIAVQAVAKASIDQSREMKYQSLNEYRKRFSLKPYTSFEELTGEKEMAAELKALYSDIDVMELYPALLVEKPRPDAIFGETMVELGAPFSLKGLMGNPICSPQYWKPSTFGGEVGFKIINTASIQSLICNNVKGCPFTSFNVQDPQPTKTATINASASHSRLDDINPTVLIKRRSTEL

[3] = target: T3, Val509lleArg499HisVal420lle mutant (VRV mutant) (Mus musculus, UniProt Q05769, R499H/V420I/V509I)
T3 sequence (Q05769 18-604 V420I/R499H/V509I): T2 sequence (Q05769 18-604 Y341A) with A324Y, V403I, R482H, V492I

ovine COX-1 = target: T4, ovine COX-1 (Ovis aries, UniProt P05979); assay: TLC assay of cyclooxygenase inhibition, purified ovine COX-1; type: biochemical; settings: Table 2, amide derivatives; ovine COX-1 (44 nM), 20 min, 1-14C-AA at 37°C for 30 sec
T4 construct: COX-1 was purified from ram seminal vesicles obtained from Oxford Biomedical Research, Inc; tissue Oxford Biomedical Research, Inc. (Oxford, Michigan); host or cells: ram seminal vesicles
T4 sequence (P05979 25-600): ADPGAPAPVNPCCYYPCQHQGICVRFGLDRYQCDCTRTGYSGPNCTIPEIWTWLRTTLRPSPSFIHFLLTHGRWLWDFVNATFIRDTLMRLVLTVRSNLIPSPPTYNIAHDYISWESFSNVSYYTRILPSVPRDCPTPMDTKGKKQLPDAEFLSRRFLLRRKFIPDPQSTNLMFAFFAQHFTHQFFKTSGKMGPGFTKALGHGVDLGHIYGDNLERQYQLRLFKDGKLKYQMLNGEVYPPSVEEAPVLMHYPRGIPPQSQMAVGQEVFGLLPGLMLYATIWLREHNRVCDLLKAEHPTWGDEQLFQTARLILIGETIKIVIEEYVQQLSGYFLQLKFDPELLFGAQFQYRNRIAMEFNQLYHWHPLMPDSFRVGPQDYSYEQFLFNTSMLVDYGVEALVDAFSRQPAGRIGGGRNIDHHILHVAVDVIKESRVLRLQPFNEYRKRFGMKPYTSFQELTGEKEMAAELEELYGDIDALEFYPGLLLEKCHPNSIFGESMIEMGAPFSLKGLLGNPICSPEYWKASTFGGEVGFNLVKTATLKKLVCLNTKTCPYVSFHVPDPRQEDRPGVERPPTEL

COX-1 = COX-1 (Homo sapiens, UniProt P23219); settings: background / literature statement; cited from earlier work
COX-2 [4] = target: T1, COX-2; settings: background / literature statement; cited from earlier work

Chain of COX-1 (P23219 24-599): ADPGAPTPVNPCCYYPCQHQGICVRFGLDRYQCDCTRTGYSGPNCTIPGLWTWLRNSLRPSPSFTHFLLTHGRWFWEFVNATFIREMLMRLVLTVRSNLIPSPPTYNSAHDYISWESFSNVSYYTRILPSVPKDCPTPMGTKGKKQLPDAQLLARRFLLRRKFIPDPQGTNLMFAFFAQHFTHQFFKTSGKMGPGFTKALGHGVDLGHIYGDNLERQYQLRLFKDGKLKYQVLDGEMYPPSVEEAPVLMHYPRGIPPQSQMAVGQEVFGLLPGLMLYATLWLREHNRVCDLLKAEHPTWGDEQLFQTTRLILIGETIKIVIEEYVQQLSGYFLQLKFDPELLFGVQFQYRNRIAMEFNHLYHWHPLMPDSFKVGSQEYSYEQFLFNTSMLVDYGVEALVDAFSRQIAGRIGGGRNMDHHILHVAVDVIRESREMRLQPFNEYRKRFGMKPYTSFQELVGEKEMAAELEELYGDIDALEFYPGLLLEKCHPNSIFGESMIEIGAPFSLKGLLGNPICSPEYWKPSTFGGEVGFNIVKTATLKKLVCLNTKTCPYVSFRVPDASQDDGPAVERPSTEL

## Cc1nc(-c2ccccc2)c(-c2ccc(S(N)(=O)=O)cc2)o1 [2-methyl-4-phenyl-5-sulfonamidophenyl oxazole, reference compound]
COX-2 [1]; Table 1, ester derivatives, Ratio of IC50 (COX-1):IC50 (COX-2)
  Selectivity: > 1100

## COc1ccc2c(c1)c(CC(=O)O)c(C)n2C(=O)c1ccc(Cl)cc1 [Compound 1, Indomethacin]
Rat foot pad edema
  reduction in inflammation: comparable reduction in inflammation

## COc1ccc2c(c1)c(CC(=O)OCCC1CCCCC1)c(C)n2C(=O)c1ccc(Cl)cc1 [Compound 10, Indomethacin cyclohexylethyl ester]
COX-2 [1]; tertiary amides
  IC value at which measurement of COX-2 inhibition was stopped: 33

## COc1ccc2c(c1)c(CC(=O)NCCc1ccccc1)c(C)n2C(=O)c1ccc(Cl)cc1 [Compound 38, Indomethacin-N-(2-phenethyl) amide]
[2]
  inhibition of Tyr341Ala mutant: resistant to inhibition
[3]
  inhibition of triple mutant VRV: resistant to inhibition

## COc1ccc2c(c1)c(CC(=O)Nc1ccc(F)cc1)c(C)n2C(=O)c1ccc(Cl)cc1 [Compound 39, Indomethacin-N-(4-fluorophenyl) amide]
Ovine COX-1
  IC50: > 66 µM

## COc1ccc2c(c1)c(CC(=O)Nc1cccnc1)c(C)n2C(=O)c1ccc(Cl)cc1 [Compound 47, Indomethacin-N-(3-pyridyl) amide]
Ovine COX-1
  IC50: > 66 µM

## CCn1nccc1NC(=O)Cc1c(C)n(C(=O)c2ccc(Cl)cc2)c2ccc(OC)cc12 [Compound 49, Indomethacin-N-5-((1-ethyl)pyrazolo) amide]
COX-2 [1]
  IC50: 0.71 µM
  Selectivity: > 94

## CC1=C(CC(=O)O)c2cc(F)ccc2/C1=C\c1ccc(S(C)(=O)=O)cc1 [sulindac sulfone]
COX-1
  inhibition of COX-1 (in words): does not inhibit
COX-2 [4]
  inhibition of COX-2 (in words): does not inhibit

## Indomethacin 3-pyridyl ester [Compound 24]
COX-2 [1]
  Selectivity: 50
